Columns and labels:
Assay in all cases: selective drug sensitivity score (sDSS, relative to normal bone marrow) (sDSS (score)); higher = more potent and effective on the cell line relative to normal bone marrow cells
Conditions in all cases: 72 h
CCRF-HSB2 = test system: CCRF-HSB2
NALL-1 = test system: NALL-1
MOLT-14 = test system: MOLT-14
KASUMI-2 = test system: KASUMI-2
697 = test system: 697
COG-LL-319h = test system: COG-LL-319h
NALM-6 = test system: NALM-6
PF-382 = test system: PF-382
REH = test system: REH
MN-60 = test system: MN-60
P12-ICHIKAWA = test system: P12-ICHIKAWA
KARPAS-45 = test system: KARPAS-45
COG-LL-355h = test system: COG-LL-355h
RCH-ACV = test system: RCH-ACV
ALL-SIL = test system: ALL-SIL
MHH-CALL-4 = test system: MHH-CALL-4
JURKAT = test system: JURKAT
CCRF-CEM = test system: CCRF-CEM
SEM cells = test system: SEM cells
KOPN-8 = test system: KOPN-8
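Further: ALL cell lines in 384-well plates, five doses spanning 10,000-fold, each plate scaled between vehicle and 100 µmol/L benzalkonium chloride controls, sDSS an adapted area-under-curve metric.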

Compound	selective drug sensitivity score (CCRF-HSB2)	selective drug sensitivity score (NALL-1)	selective drug sensitivity score (MOLT-14)	selective drug sensitivity score (KASUMI-2)	selective drug sensitivity score 697	selective drug sensitivity score (COG-LL-319h)	selective drug sensitivity score (NALM-6)	selective drug sensitivity score (PF-382)	selective drug sensitivity score (REH)	selective drug sensitivity score (MN-60)	selective drug sensitivity score (P12-ICHIKAWA)	selective drug sensitivity score (KARPAS-45)	selective drug sensitivity score (COG-LL-355h)	selective drug sensitivity score (RCH-ACV)	selective drug sensitivity score (ALL-SIL)	selective drug sensitivity score (MHH-CALL-4)	selective drug sensitivity score (JURKAT)	selective drug sensitivity score (CCRF-CEM)	selective drug sensitivity score (SEM cells)	selective drug sensitivity score (KOPN-8)
C=CC(=O)N1CCC(Oc2cc3c(Nc4ccc(Cl)c(Cl)c4F)ncnc3cc2OC)CC1 [Poziotinib] (top concentration 1000 nM)	3.68	3.28	0.78	5.98	-0.22	3.98	-0.22	-0.22	-0.22	-0.22	-0.22	-0.22	-0.22	4.98	3.48	0.68	-0.22	-0.22	3.88	-0.22
CC[C@H](C)C(=O)O[C@H]1C[C@H](O)C=C2C=C[C@H](C)[C@H](CC[C@@H](O)C[C@@H](O)CC(=O)O)[C@H]21 [Pravastatin] (top concentration 10000 nM)	-0.66	-0.66	-0.16	-0.66	-0.66	0.64	-0.66	-0.66	-0.66	-0.66	-0.66	-0.66	-0.56	-0.56	-0.66	-0.66	-0.66	-0.46	-0.66	-0.66
COC(=O)c1ccc([C@H]2c3[nH]c4ccccc4c3C[C@H](C(=O)OC)N2C(=O)CCl)cc1 [RSL3] (top concentration 10000 nM)	0	5.2	0	0	0	0	1.5	0.9	3.1	0	0	0	3.8	4.5	0	0	0	0.2	0	0
Cc1cnc(NC(=O)Nc2cc(Br)c(C)cc2OC[C@@H]2CNCCO2)cn1 [Rabusertib] (top concentration 1000 nM)	-0.74	-0.74	0.16	-0.74	-0.74	4.26	1.16	-0.64	0.06	3.56	-0.74	0.36	1.96	2.06	-0.74	0.16	-0.74	0.06	1.26	1.66
CCOCc1nc2c(N)nc3ccccc3c2n1CC(C)(C)O [Resiquimod] (top concentration 10000 nM)	-4.92	-4.92	-4.92	-4.92	-4.62	5.68	-4.42	-4.72	-4.92	-1.82	-4.92	-4.92	-4.92	-4.92	-4.92	-4.92	-4.52	-4.92	-4.92	-4.92
C[C@H]1CNCCCN1S(=O)(=O)c1cccc2cncc(F)c12 [Ripasudil] (top concentration 10000 nM)	1.58	-0.22	-0.22	-0.22	2.68	1.18	-0.22	-0.22	-0.22	-0.22	1.18	0.88	-0.22	-0.22	0.78	0.18	-0.22	-0.12	-0.22	0.88
Cc1nc(C(=O)NCC(=O)O)c(O)c2ccc(Oc3ccccc3)cc12 [Roxadustat] (top concentration 10000 nM)	-0.52	-1.12	-0.32	-0.92	-0.92	2.28	-1.12	-0.52	-1.12	-1.12	-0.82	-1.12	-1.12	-1.12	-1.12	-1.12	-0.42	-1.02	-1.12	-0.92
CN(C)C[C@@H]1CCn2cc(c3ccccc32)C2=C(C(=O)NC2=O)c2cn(c3ccccc23)CCO1 [Ruboxistaurin] (top concentration 10000 nM)	1.36	-3.04	1.66	-3.34	2.36	-1.04	-2.64	-1.34	-0.54	-5.44	-1.74	-0.14	1.26	1.06	-2.94	1.46	-1.84	-0.34	0.66	0.86

From the supplement of paper PMC8967900
